Measured values reported in patent publication US20250262201A1, “COMPOUNDS AND METHODS USEFUL FOR STABILIZING PHENYLALANINE HYDROXYLASE MUTATIONS” (Agios Pharmaceuticals, Inc., priority 2022, published 2025).

target: T1, human PAH with the R408W mutation (Homo sapiens, UniProt P00439, R408W); assay: Cell Based Phenylalanine Flux Assay; settings: A375 cells expressing human R408W PAH; 24 hrs compound incubation; 13C-Tyrosine by LC-MS; average where tested multiple times; read-out: AC50
T1 construct: expressed in transfected cells
T1 sequence (P00439 1-452 R408W): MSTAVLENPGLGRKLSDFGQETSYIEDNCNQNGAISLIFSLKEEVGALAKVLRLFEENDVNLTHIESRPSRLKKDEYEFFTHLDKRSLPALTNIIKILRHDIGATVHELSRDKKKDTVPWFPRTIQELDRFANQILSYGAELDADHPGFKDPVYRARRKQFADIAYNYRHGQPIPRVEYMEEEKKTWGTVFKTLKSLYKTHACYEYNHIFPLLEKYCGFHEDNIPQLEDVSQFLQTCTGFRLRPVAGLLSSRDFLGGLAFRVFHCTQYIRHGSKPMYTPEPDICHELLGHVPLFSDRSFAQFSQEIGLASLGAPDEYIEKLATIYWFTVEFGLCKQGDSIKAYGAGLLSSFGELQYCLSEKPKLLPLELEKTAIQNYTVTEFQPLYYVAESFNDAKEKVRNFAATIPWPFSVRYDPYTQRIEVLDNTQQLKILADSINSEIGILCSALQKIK

Row | SMILES | AC50 [nM]
1 | O=C(c1oc(N2CCC(F)CC2)nc1C(F)F)N1CCc2[nH]cnc2[C@H]1c1ncc2ccccc2n1 [Example 280, (S)-(4-(difluoromethyl)-2-(4-fluoropiperidin-1-yl)oxazol-5-yl)(4-(quinazolin-2-yl)-6,7-dihydro-1H-imidazo[4,5-c]pyridin-5(4H)-yl)methanone] | < 500
2 | Cn1cncc1-c1nc(C(F)F)c(C(=O)N2CCc3[nH]cnc3[C@@H]2c2ncc3ccccc3n2)o1 [Example 281, (R)-(4-(difluoromethyl)-2-(1-methyl-1H-imidazol-5-yl)oxazol-5-yl)(4-(quinazolin-2-yl)-6,7-dihydro-1H-imidazo[4,5-c]pyridin-5(4H)-yl)methanone] | 500 to 1000
3 | O=C(c1cnco1)N1CCc2[nH]cnc2[C@H]1c1ccc2ccccc2c1 [Example 283, (R)-(4-(naphthalen-2-yl)-6,7-dihydro-1H-imidazo[4,5-c]pyridin-5(4H)-yl)(oxazol-5-yl)methanone] | 500 to 1000
4 | O=C(c1cnc(-c2ccccn2)s1)N1CCc2[nH]cnc2[C@H]1c1cc2ccccc2cn1 [Example 300, (R)-(4-(isoquinolin-3-yl)-6,7-dihydro-1H-imidazo[4,5-c]pyridin-5(4H)-yl)(2-(pyridin-2-yl)thiazol-5-yl)methanone] | < 500
5 | O=C(c1cnc(-c2ccccn2)s1)N1CCc2[nH]cnc2[C@@H]1c1cc2ccccc2cn1 [Example 301, (S)-(4-(isoquinolin-3-yl)-6,7-dihydro-1H-imidazo[4,5-c]pyridin-5(4H)-yl)(2-(pyridin-2-yl)thiazol-5-yl)methanone] | > 5000
6 | Cn1cc(-c2ncc(C(=O)N3CCc4[nH]cnc4[C@H]3c3cc4ccccc4cn3)s2)cn1 [Example 302, (R)-(4-(isoquinolin-3-yl)-6,7-dihydro-1H-imidazo[4,5-c]pyridin-5(4H)-yl)(2-(1-methyl-1H-pyrazol-4-yl)thiazol-5-yl)methanone] | < 500
7 | Cn1cc(-c2ncc(C(=O)N3CCc4[nH]cnc4[C@@H]3c3cc4ccccc4cn3)s2)cn1 [Example 303, (S)-(4-(isoquinolin-3-yl)-6,7-dihydro-1H-imidazo[4,5-c]pyridin-5(4H)-yl)(2-(1-methyl-1H-pyrazol-4-yl)thiazol-5-yl)methanone] | > 5000
8 | O=C(c1cnc(-c2cnn(CC(F)(F)F)c2)o1)N1CCc2[nH]cnc2[C@@H]1c1cc2ccccc2cn1 [Example 304, (S)-(4-(isoquinolin-3-yl)-6,7-dihydro-1H-imidazo[4,5-c]pyridin-5(4H)-yl)(2-(1-(2,2,2-trifluoroethyl)-1H-pyrazol-4-yl)oxazol-5-yl)methanone] | > 5000
9 | O=C(c1cnc(-c2cnn(CC(F)(F)F)c2)o1)N1CCc2[nH]cnc2[C@H]1c1cc2ccccc2cn1 [Example 305, (R)-(4-(isoquinolin-3-yl)-6,7-dihydro-1H-imidazo[4,5-c]pyridin-5(4H)-yl)(2-(1-(2,2,2-trifluoroethyl)-1H-pyrazol-4-yl)oxazol-5-yl)methanone] | < 500
10 | O=C(c1cnc(-c2cnn(CC(F)(F)F)c2)s1)N1CCc2[nH]cnc2[C@H]1c1cc2ccccc2cn1 [Example 306, (R)-(4-(isoquinolin-3-yl)-6,7-dihydro-1H-imidazo[4,5-c]pyridin-5(4H)-yl)(2-(1-(2,2,2-trifluoroethyl)-1H-pyrazol-4-yl)thiazol-5-yl)methanone] | 500 to 1000
11 | O=C(c1cnc(-c2cnn(CC(F)(F)F)c2)s1)N1CCc2[nH]cnc2[C@@H]1c1cc2ccccc2cn1 [Example 307, (S)-(4-(isoquinolin-3-yl)-6,7-dihydro-1H-imidazo[4,5-c]pyridin-5(4H)-yl)(2-(1-(2,2,2-trifluoroethyl)-1H-pyrazol-4-yl)thiazol-5-yl)methanone] | > 5000
12 | O=C(c1cnc(-c2ccccn2)o1)N1CCc2[nH]cnc2[C@H]1c1cc2ccccc2cn1 [Example 308, (R)-(4-(isoquinolin-3-yl)-6,7-dihydro-1H-imidazo[4,5-c]pyridin-5(4H)-yl)(2-(pyridin-2-yl)oxazol-5-yl)methanone] | < 500
13 | O=C(c1cnc(-c2ccccn2)o1)N1CCc2[nH]cnc2[C@@H]1c1cc2ccccc2cn1 [Example 309, (S)-(4-(isoquinolin-3-yl)-6,7-dihydro-1H-imidazo[4,5-c]pyridin-5(4H)-yl)(2-(pyridin-2-yl)oxazol-5-yl)methanone] | > 5000
14 | Cn1cc(-c2ncc(C(=O)N3CCc4[nH]cnc4[C@H]3c3cc4ccccc4cn3)o2)cn1 [Example 311, (R)-(4-(isoquinolin-3-yl)-6,7-dihydro-1H-imidazo[4,5-c]pyridin-5(4H)-yl)(2-(1-methyl-1H-pyrazol-4-yl)oxazol-5-yl)methanone] | < 500
15 | O=C(c1cnc(-c2ccc(F)cn2)s1)N1CCc2[nH]cnc2[C@@H]1c1cc2ccccc2cn1 [Example 313, (S)-(2-(5-fluoropyridin-2-yl)thiazol-5-yl)(4-(isoquinolin-3-yl)-6,7-dihydro-1H-imidazo[4,5-c]pyridin-5(4H)-yl)methanone] | 1000 to 5000
16 | COCc1ccc2c(C(=O)N3CCc4[nH]cnc4[C@H]3c3cc4ccccc4cn3)cnn2c1 [Example 314, (R)-(4-(isoquinolin-3-yl)-6,7-dihydro-1H-imidazo[4,5-c]pyridin-5(4H)-yl)(6-(methoxymethyl)pyrazolo[1,5-a]pyridin-3-yl)methanone] | < 500
17 | COCc1ccc2c(C(=O)N3CCc4[nH]cnc4[C@@H]3c3cc4ccccc4cn3)cnn2c1 [Example 315, (S)-(4-(isoquinolin-3-yl)-6,7-dihydro-1H-imidazo[4,5-c]pyridin-5(4H)-yl)(6-(methoxymethyl)pyrazolo[1,5-a]pyridin-3-yl)methanone] | > 5000
18 | CC(C)(C)c1ncc(C(=O)N2CCc3[nH]cnc3[C@H]2c2cc3ccccc3cn2)s1 [Example 316, (R)-(2-(tert-butyl)thiazol-5-yl)(4-(isoquinolin-3-yl)-6,7-dihydro-1H-imidazo[4,5-c]pyridin-5(4H)-yl)methanone] | < 500
19 | CC(C)(C)c1ncc(C(=O)N2CCc3[nH]cnc3[C@@H]2c2cc3ccccc3cn2)s1 [Example 317, (S)-(2-(tert-butyl)thiazol-5-yl)(4-(isoquinolin-3-yl)-6,7-dihydro-1H-imidazo[4,5-c]pyridin-5(4H)-yl)methanone] | > 5000
20 | Cc1nnc(C(=O)N2CCc3[nH]cnc3[C@H]2c2cc3ccccc3cn2)o1 [Example 318, (R)-(4-(isoquinolin-3-yl)-6,7-dihydro-1H-imidazo[4,5-c]pyridin-5(4H)-yl)(5-methyl-1,3,4-oxadiazol-2-yl)methanone] | < 500
21 | Cc1nnc(C(=O)N2CCc3[nH]cnc3[C@@H]2c2cc3ccccc3cn2)o1 [Example 319, (S)-(4-(isoquinolin-3-yl)-6,7-dihydro-1H-imidazo[4,5-c]pyridin-5(4H)-yl)(5-methyl-1,3,4-oxadiazol-2-yl)methanone] | > 5000
22 | O=C(c1cnco1)N1CCc2[nH]cnc2[C@H]1c1cc2ccccc2cn1 [Example 320, (R)-(4-(isoquinolin-3-yl)-6,7-dihydro-1H-imidazo[4,5-c]pyridin-5(4H)-yl)(oxazol-5-yl)methanone] | < 500
23 | O=C(c1cnco1)N1CCc2[nH]cnc2[C@@H]1c1cc2ccccc2cn1 [Example 321, (S)-(4-(isoquinolin-3-yl)-6,7-dihydro-1H-imidazo[4,5-c]pyridin-5(4H)-yl)(oxazol-5-yl)methanone] | 1000 to 5000
24 | Cn1cc(-c2nnc(C(=O)N3CCc4[nH]cnc4[C@H]3c3cc4ccccc4cn3)o2)cn1 [Example 322, (R)-(4-(isoquinolin-3-yl)-6,7-dihydro-1H-imidazo[4,5-c]pyridin-5(4H)-yl)(5-(1-methyl-1H-pyrazol-4-yl)-1,3,4-oxadiazol-2-yl)methanone] | < 500
25 | Cn1cc(-c2nnc(C(=O)N3CCc4[nH]cnc4[C@@H]3c3cc4ccccc4cn3)o2)cn1 [Example 323, (S)-(4-(isoquinolin-3-yl)-6,7-dihydro-1H-imidazo[4,5-c]pyridin-5(4H)-yl)(5-(1-methyl-1H-pyrazol-4-yl)-1,3,4-oxadiazol-2-yl)methanone] | > 5000
26 | O=C(c1nnc(-c2ccccn2)o1)N1CCc2[nH]cnc2[C@H]1c1cc2ccccc2cn1 [Example 324, (R)-(4-(isoquinolin-3-yl)-6,7-dihydro-1H-imidazo[4,5-c]pyridin-5(4H)-yl)(5-(pyridin-2-yl)-1,3,4-oxadiazol-2-yl)methanone] | < 500
27 | O=C(c1nnc(-c2ccccn2)o1)N1CCc2[nH]cnc2[C@@H]1c1cc2ccccc2cn1 [Example 325, (S)-(4-(isoquinolin-3-yl)-6,7-dihydro-1H-imidazo[4,5-c]pyridin-5(4H)-yl)(5-(pyridin-2-yl)-1,3,4-oxadiazol-2-yl)methanone] | > 5000
28 | O=C(c1nnc(C2CC2)o1)N1CCc2[nH]cnc2[C@H]1c1cc2ccccc2cn1 [Example 326, (R)-(5-cyclopropyl-1,3,4-oxadiazol-2-yl)(4-(isoquinolin-3-yl)-6,7-dihydro-1H-imidazo[4,5-c]pyridin-5(4H)-yl)methanone] | < 500
29 | CC(C)(O)c1ncc(C(=O)N2CCc3[nH]cnc3[C@H]2c2cc3ccccc3cn2)s1 [Example 328, (R)-(2-(2-hydroxypropan-2-yl)thiazol-5-yl)(4-(isoquinolin-3-yl)-6,7-dihydro-1H-imidazo[4,5-c]pyridin-5(4H)-yl)methanone] | 500 to 1000
30 | CC(C)(O)c1ncc(C(=O)N2CCc3[nH]cnc3[C@@H]2c2cc3ccccc3cn2)s1 [Example 329, (S)-(2-(2-hydroxypropan-2-yl)thiazol-5-yl)(4-(isoquinolin-3-yl)-6,7-dihydro-1H-imidazo[4,5-c]pyridin-5(4H)-yl)methanone] | > 5000
